Experimental data from PubChem BioAssay AID2253 (Southern Research Specialized Biocontainment Screening …, 2010).
“And” between values parts separate entries of the source, which are not always exact repeats. Equal entries are not always repeated.

Test system: THP-1 viability, CellTiter-Glo luminescence, 72 h
Assay: THP-1 cell cytotoxicity, dose response, cytotoxicity control for Salmonella PhoP regulon inhibitors, S. typhimurium screen hits (AID 2253)

Compound	EC50
Cc1cc(C(=O)N/N=C/c2ccc(O)c(O)c2O)c(C)n1-c1ccccc1	4.48 µM
CCCCCCCSc1cc(OC)c(CCNC)cc1OC	6.34 µM
C#CCOCCOCCOCCNc1nc(N2CCN(C(=O)CCCCCCCCCCNC(=O)[C@H]([C@@H](C)CC)n3cc(CCCCN=C(N)N)nn3)CC2)nc(N2CCN(C(=O)CCCCCCCCCCNC(=O)[C@H](CCCN=C(N)N)n3cc(C[C@@H](C)CC)nn3)CC2)n1	3.57 µM
Nc1cccc2nc3ccccc3cc12	4.25 µM
CN(C)c1ccc(/C=C/c2ccc3ccccc3[n+]2C)cc1	0.3 µM
CCCCC1(CCCC)C(=O)NC(=Nc2cccc(C)c2)NC1=O	39.1 µM
Cc1ccc2nc(NNC(=O)c3ccc(S(=O)(=O)N4CCc5ccccc5C4)cc3)sc2c1	1.83 µM
CCCCn1c(/N=C/c2c[nH]c3ccccc23)nc2ccccc21	27.2 µM
COc1ccc2c(c1)[nH]c1c(N3CCN(Cc4ccc5c(c4)OCO5)CC3)ncnc12	6.85 µM
CO[C@H]1C=CO[C@@]2(C)Oc3c(C)c(O)c4c(O)c(c(C=NN5CCN(C)CC5)c(O)c4c3C2=O)NC(=O)C(C)=CC=C[C@H](C)[C@H](O)[C@@H](C)[C@@H](O)[C@@H](C)[C@H](OC(C)=O)[C@@H]1C	33 µM
CC1CCC(C(C)C)C(OC(=O)Cn2c(COc3ccccc3)[n+](C)c3ccccc32)C1 (stereo unspecified)	2.6 µM
c1ccc2c(c1)ncn2CCCCOc1ccc2c(c1)CCC2	15 µM
Cn1c(=N)n(CC(=O)c2ccc(Br)s2)c2ccccc21	10.1 µM
NC(N)=N/N=C/c1ccc(OCc2ccc(Cl)cc2)cc1	2.91 µM
O=C(NCCN1CCOCC1)c1ccc2ccccc2c1	< 0.1 µM
O=C(N/N=C/c1cn(-c2ccccc2)nc1-c1ccc(F)cc1)c1ccc2c(c1)OCO2	35 µM
Cc1cc(/C=N/n2c(COc3ccccc3C)nc3ccccc3c2=O)c(O)c([N+](=O)[O-])c1	2.52 µM
CNC[C@H](Cc1ccccc1)NC[C@@H](Cc1cccc2ccccc12)NCCc1ccc(C)cc1	4.75 µM
COc1ccc(/C=C2\CN(Cc3ccccc3)C/C(=C\c3ccc(OC)cc3)C2=O)cc1	12.7 µM

Compound	EC50
CCOC(=O)C1=Nc2ccccc2C1=[N+]=[N-]	27.2 µM
c1ccc(CNc2c3c(nc4ccccc24)CCC3)cc1	11.3 µM
COc1ccc(C(C[N+](=O)[O-])n2nc(C)cc2C)cc1 (stereo unspecified)	10.1 µM
CCCCCCCCNC(C)C(O)c1ccc(SC(C)C)cc1 (stereo unspecified)	10.7 µM
CC(C)CCNCC(O)CON=C1c2ccccc2-c2ccccc21 (stereo unspecified)	10.2 µM
Nc1cc2nsnc2cc1Br	7.44 µM
O=C(Nc1cccc(Cl)c1)C1C2CCC3C(CCC21)C3(Cl)Cl (stereo unspecified)	27.2 µM
c1ccc(Nc2cc(Nc3ccccc3)[nH]n2)cc1	23.7 µM
CCCCCCCCn1c2c(c(=N)c3c1CCC3)CCCC2	0.78 µM
Cc1onc(-c2ccccc2)c1C(=O)NC(=S)NNC(=O)c1ccc(O)cc1O	1.87 µM
Cc1ccc(Nc2cc(C)c3c(O)cccc3n2)cc1C	15.2 µM
Cc1cccc(Sc2c([N+](=O)[O-])ncn2C)c1	32 µM
Clc1ccc(Cn2ncc3c(NCc4ccco4)ncnc32)c(Cl)c1	6.81 µM
O=C(C[n+]1cc(-c2ccccc2)n2c1CCCCC2)c1ccc(Cl)cc1	28.9 µM
Cc1[nH]nc2c1C(c1cc(Br)cs1)C(C#N)=C(N)O2 (stereo unspecified)	11.2 µM
COc1cc(/C=C/[N+](=O)[O-])ccc1O	12.6 µM
Nc1ncn(C2O[C@H](CO)[C@@H](O)[C@H]2O)c(=O)n1 (stereo partly specified)	10.8 µM
O=C(C[n+]1cc(-c2ccc(Cl)c(Cl)c2)n2c1CCC2)N1c2ccccc2Sc2ccccc21	17.8 µM
CCCCCCCNC(=O)C1(CC2CC(c3ccc(Cl)cc3)=NO2)CCNCC1 (stereo unspecified)	5.66 µM

Compound	EC50
Cc1ccc(Nc2c3c(nc4ccccc24)CCC3)cc1	12.2 µM
O=C(Nc1ccc(Br)cc1)c1ccc(F)c(S(=O)(=O)NCc2cccs2)c1	21.7 µM
OC(c1cc(-c2ccc(C(F)(F)F)cc2)nc(C(F)(F)F)c1)C1CCCCN1 (stereo unspecified)	6.15 µM
CC(C)NC1=C(Cl)C(=O)c2ccccc2C1=O	18.9 µM
CCCCCCCNC(=O)C1(CC2CC(c3cccc(Br)c3)=NO2)CCNCC1 (stereo unspecified)	4.13 µM
O=C1c2ccccc2-c2onc3ccc(NCc4ccco4)c1c23	17.9 µM
Clc1ccc(Nc2ccc(NCc3ccccc3)nn2)cc1	21.3 µM
CC[C@H]1OC(=O)C[C@@H](O)[C@H](C)[C@@H](O[C@@H]2O[C@H](C)C[C@H](N(C)C)[C@H]2O)[C@@H](CC=O)C[C@@H](C)C(=O)C=C[C@]2(C)O[C@H]2[C@@H]1C	11.9 µM
COc1ccccc1N1CCN(c2ccc(-c3ccccc3)nn2)CC1	2.61 µM
CCCCCCCCCCOC(=O)Cn1c(COc2ccc(OC)cc2)[n+](C)c2ccccc21	3.17 µM and 2.22 µM
Cc1ccc(-n2sc3ccccc3c2=O)cc1S(=O)(=O)N1CCCCC1	2.75 µM
CCOc1ccc(CSC(=N)N)cc1[N+](=O)[O-]	20.4 µM
O=C(NC1CCCCC1)C(c1ccncc1)N(Cc1ccccc1)C(=O)c1ccc(-c2ccccc2)[nH]1 (stereo unspecified)	22.5 µM
O=S(=O)(c1ccccc1)N(CC(O)Cn1c2ccccc2c2ccccc21)c1ccccc1 (stereo unspecified)	11.1 µM
CSc1ccc2c(c1)C(N1CCN(C)CC1)Cc1ccccc1S2 (stereo unspecified)	10.6 µM
COc1ccc(Nc2nnc(SCc3cn4c(C)cccc4n3)s2)cc1	9.34 µM
CCCOc1ccc(C(=O)C(CCC(CNCC)C(=O)c2ccc(OCCC)cc2)CNCC)cc1 (stereo unspecified)	1.58 µM
CSc1ccc(C(=O)/C=C/c2ccc(N)cc2)cc1	21.7 µM
